pIC50: −log10 of the molar value.
Legend:
[1] = serum compound (II) level at time of embryo transfer (Phase 2 study); format: in vivo; conditions: female, human, oral, about 3.5 hours after administration, mean (standard deviation)
Procedure: From one to two embryos of good quality were transferred to each subject. To reduce uterine contractions at the time of embryo transfer, soft or ultra-soft catheters were used and contact with the uterine fundus was avoided. Any difficulties that occurred during the embryo transfer procedure were recorded, including instances in which uterine sounding or cervical dilation were required, instances in which a harder catheter was required, or instances in which blood was found in any part of the catheter.

[2] = tested on: cytochrome P450; test: microsomal stability, pooled liver microsomes, cytochrome P450 alone; format: in vitro ADME; conditions: 45 minute experiment
Procedure: (§1) At five time points over the course of a 45 minute experiment, the compounds were analyzed by liquid chromatography and tandem mass spectrometry (LC-MS/MS). Intrinsic clearance values (CLint) with standard error (SE CLint) and metabolic half-life (t1/2) were calculated and are indicated in Table 9, below.

[3] = tested on: cytochrome P450 in combination with UGT; test: microsomal stability, pooled liver microsomes, cytochrome P450 in combination with UGT; format: in vitro ADME; conditions: 45 minute experiment
Procedure: as §1

[4] = target: CYP3A4 (Homo sapiens, UniProt P08684); test: metabolism by CYP3A4 isoform; format: in vitro ADME; conditions: for Compound Remaining (% of compound present at t = 0 min): 5 μM
CYP3A4, sequence (P08684 whole entry, canonical isoform): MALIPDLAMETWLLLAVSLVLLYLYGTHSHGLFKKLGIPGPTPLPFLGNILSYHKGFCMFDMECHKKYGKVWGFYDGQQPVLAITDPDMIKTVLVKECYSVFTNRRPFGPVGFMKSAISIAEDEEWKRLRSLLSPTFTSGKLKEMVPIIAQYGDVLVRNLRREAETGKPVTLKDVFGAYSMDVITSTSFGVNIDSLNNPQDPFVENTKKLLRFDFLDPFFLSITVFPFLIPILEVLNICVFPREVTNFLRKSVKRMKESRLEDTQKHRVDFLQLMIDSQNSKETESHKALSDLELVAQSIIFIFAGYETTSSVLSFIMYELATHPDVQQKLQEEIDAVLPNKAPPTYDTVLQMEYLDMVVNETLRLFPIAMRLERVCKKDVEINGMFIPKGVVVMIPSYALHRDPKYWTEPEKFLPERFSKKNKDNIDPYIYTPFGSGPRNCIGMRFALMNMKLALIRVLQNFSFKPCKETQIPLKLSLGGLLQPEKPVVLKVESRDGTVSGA
Procedure: (§2) At five time points over the course of a 45 minute experiment, the compounds were analyzed by LC-MS/MS. The percentage of each compound remaining at each time point, along with the metabolic half-lives of each compound in the presence of each cytochrome P450 isoform, are indicated in Tables 10-12, below.

[5] = target: CYP2D6 (Homo sapiens, UniProt P10635); test: metabolism by CYP2D6 isoform; format: in vitro ADME; conditions: for Compound Remaining (% of compound present at t = 0 min): 5 μM
CYP2D6, sequence (P10635 whole entry, canonical isoform): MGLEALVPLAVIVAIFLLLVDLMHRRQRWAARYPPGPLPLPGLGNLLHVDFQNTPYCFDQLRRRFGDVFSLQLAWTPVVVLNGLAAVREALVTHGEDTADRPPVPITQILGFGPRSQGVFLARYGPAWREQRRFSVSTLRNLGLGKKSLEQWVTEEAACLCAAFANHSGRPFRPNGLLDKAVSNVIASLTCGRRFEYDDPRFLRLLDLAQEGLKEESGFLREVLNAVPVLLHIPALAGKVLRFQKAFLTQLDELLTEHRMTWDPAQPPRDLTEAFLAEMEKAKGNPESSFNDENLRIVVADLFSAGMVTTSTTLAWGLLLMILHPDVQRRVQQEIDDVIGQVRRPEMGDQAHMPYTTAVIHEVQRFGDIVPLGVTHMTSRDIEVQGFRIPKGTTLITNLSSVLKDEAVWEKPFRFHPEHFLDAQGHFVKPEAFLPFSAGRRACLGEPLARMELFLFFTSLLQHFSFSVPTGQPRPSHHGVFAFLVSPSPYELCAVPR
Procedure: as §2

[6] = target: CYP2C19 (Homo sapiens, UniProt P33261); test: metabolism by CYP2C19 isoform; format: in vitro ADME; conditions: for Compound Remaining (% of compound present at t = 0 min): 5 μM
CYP2C19, sequence (P33261 whole entry, canonical isoform): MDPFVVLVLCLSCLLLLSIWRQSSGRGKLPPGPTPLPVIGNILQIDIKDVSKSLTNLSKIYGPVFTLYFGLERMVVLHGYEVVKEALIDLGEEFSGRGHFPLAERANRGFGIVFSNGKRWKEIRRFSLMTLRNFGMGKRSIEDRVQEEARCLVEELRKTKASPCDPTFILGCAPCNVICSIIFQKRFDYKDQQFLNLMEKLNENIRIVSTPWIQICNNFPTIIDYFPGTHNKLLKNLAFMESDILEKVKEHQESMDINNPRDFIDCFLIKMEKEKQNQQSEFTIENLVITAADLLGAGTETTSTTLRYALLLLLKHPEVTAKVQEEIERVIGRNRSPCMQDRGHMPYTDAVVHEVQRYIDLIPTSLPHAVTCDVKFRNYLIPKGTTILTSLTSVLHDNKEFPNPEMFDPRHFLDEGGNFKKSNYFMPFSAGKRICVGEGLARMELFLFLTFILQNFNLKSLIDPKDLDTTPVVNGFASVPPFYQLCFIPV
Procedure: as §2

[7] = tested on: HEK293EBNA cells; conditions: suppressing Ca^2+ mobilization in cultured HEK293EBNA cells; cited from earlier work
[8] = in vivo, cited from earlier work
[9] = tested on: human subjects; conditions: cited from earlier work
[10] = tested on: spontaneous uterine contractions; conditions: anesthetized late-term pregnant rats, cited from earlier work

CO/N=C1/C[C@@H](CO)N(C(=O)c2ccc(-c3ccccc3C)cc2)C1 [Compound (II), (3Z,5S)-5-(hydroxymethyl)-1-[(2′-methyl-1,1′-biphenyl-4-yl)carbonyl]pyrrolidin-3-one O-methyloxime]
concentration at 3.5 h ([1]; 100 mg dose): 484 ng/mL | concentration at 3.5 h ([1]; 300 mg dose): 1450 ng/mL | concentration at 3.5 h ([1]; 900 mg dose): 4160 ng/mL | microsomal CLint at 3 μM ([2]; read-out: CLint, Metabolic Stability - CYP): 11.6 µL/min/mg | half-life at 3 μM ([2]; read-out: t1/2, Metabolic Stability - CYP): 2 h | microsomal CLint at 3 μM ([3]; read-out: CLint, Metabolic Stability - CYP/UGT): 9.33 µL/min/mg | half-life at 3 μM ([3]; read-out: t1/2, Metabolic Stability - CYP/UGT): 2.48 h | Compound Remaining (% of compound present at t = 0 min) ([4]; 0 min): 100% | Compound Remaining (% of compound present at t = 0 min) ([4]; 5 min): 86.5% | Compound Remaining (% of compound present at t = 0 min) ([4]; 15 min): 75.9% | Compound Remaining (% of compound present at t = 0 min) ([4]; 30 min): 67.3% | Compound Remaining (% of compound present at t = 0 min) ([4]; 45 min): 63.9% | half-life at 5 μM ([4]; human): 1.23 h | Compound Remaining (% of compound present at t = 0 min) ([5]; 0 min): 100% | Compound Remaining (% of compound present at t = 0 min) ([5]; 5 min): 80.3% | Compound Remaining (% of compound present at t = 0 min) ([5]; 15 min): 50.5% | Compound Remaining (% of compound present at t = 0 min) ([5]; 30 min): 22.5% | Compound Remaining (% of compound present at t = 0 min) ([5]; 45 min): 12.2% | half-life at 5 μM ([5]; human): 0.242 h | Compound Remaining (% of compound present at t = 0 min) ([6]; 0 min): 100% | Compound Remaining (% of compound present at t = 0 min) ([6]; 5 min): 93.7% | Compound Remaining (% of compound present at t = 0 min) ([6]; 15 min): 79.1% | Compound Remaining (% of compound present at t = 0 min) ([6]; 30 min): 67.8% | Compound Remaining (% of compound present at t = 0 min) ([6]; 45 min): 59.9% | half-life at 5 μM ([6]; human): 1.01 h | pIC50 [7]: 7.09 | oral bioavailability ([8]; po): 42-100% | serum half-life [8]: 11 to 12 h | tmax [8]: 1 to 4 h | safely tolerated dose [9]: up to 1500 mg | effect on spontaneous uterine contractions ([10]; 10, 30, and 60 mg/kg): dose-dependent reduction in spontaneous uterine contractions | Inhibition of spontaneous uterine contractions ([10]; from 170 to 180 minutes after oral administration at a dose of 60 mg/kg): about 42%

From patent publication US20190247361A1, “OXYTOCIN ANTAGONIST DOSING REGIMENS FOR PROMOTING EMBRYO IMPLANTATION AND PREVENTING MISCARRIAGE” (ObsEva S.A., priority 2016, published 2019)
